Results from patent US20250163104A1, “MACROCYCLIC IMMUNOMODULATORS” (priority 2021, published 2025).
Where a SMILES comes first, the peptide text is derived from it. Bridges are numbered along the chain shown (N, C = ends). [ ]: non-standard residue; d: D form. Bip = N[C@@H](Cc1ccc(-c2ccccc2)cc1)C(=O)O; Cit = NC(=O)NCCC[C@H](N)C(=O)O; dOrn = NCCC[C@@H](N)C(=O)O; dDab = NCC[C@@H](N)C(=O)O; Orn = NCCC[C@H](N)C(=O)O; dDap = NC[C@@H](N)C(=O)O; Dab = NCC[C@H](N)C(=O)O; Dap = NC[C@H](N)C(=O)O

biological target: T1, human PD-1 / PD-L1-Ig binding on Jurkat cell line over-expressing human PD-1 (Jurkat-PD-1) (Homo sapiens, UniProt Q15116); assay: Jurkat-PD-1 Cell Binding High-Content Screening Assay (CBA); format: cell-based; settings: Jurkat-PD-1 cells, PE-labeled PD-L1-Ig 20 nM final; read-out: Jurkat HPD1_PDL1 IC50
T1 construct: expressed in transfected cells; host or cells: Jurkat
Method: Example 3. Jurkat-PD-1 Cell Binding High-Content Screening Assay (CBA)
Jurkat-PD-1 Cell Binding High-Content Screening Assay (CBA). Phycoerythrin (PE) was covalently linked to the Ig epitope tag of human PD-L1-Ig and fluorescently-labeled PD-L1-Ig was used for binding studies with a Jurkat cell line over-expressing human PD-1 (Jurkat-PD-1). Briefly, 8×10^3 Jurkat-hPD-1 cells were seeded into 384 well plates in 20 μl of DMEM supplemented with 10% fetal calf serum. 100 nL of compound was added to cells followed by incubation at 37° C. for 2 h. Then, 5 μl of PE-labeled PD-L1-Ig (20 nM final), diluted in DMEM supplemented with 10% fetal calf serum. After 1 hour incubation, cells were fixed with 4% paraformaldehyde in dPBS containing 10 μg/ml Hoechst 33342 and then washed 3x in 100 μl dPBS. Data was collected and processed using a Cell Insight NXT High Content Imager and associated software.

T1 sequence (Q15116 25-288): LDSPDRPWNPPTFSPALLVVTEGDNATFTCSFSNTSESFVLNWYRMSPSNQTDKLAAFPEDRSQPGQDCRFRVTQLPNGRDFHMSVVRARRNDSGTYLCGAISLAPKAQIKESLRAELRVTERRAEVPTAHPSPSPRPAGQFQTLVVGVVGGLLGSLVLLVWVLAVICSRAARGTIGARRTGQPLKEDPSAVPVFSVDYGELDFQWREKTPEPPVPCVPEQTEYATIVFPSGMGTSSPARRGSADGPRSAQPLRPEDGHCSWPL

| IC50 [nM] | SMILES |
| --- | --- |
| 16.7 | CC(C)C[C@@H]1NC(=O)[C@H](CCN)NC(=O)[C@@H](CC(C)C)NC(=O)[C@H](C)NC(=O)[C@H](C(C)C)NC(=O)[C@H](Cc2ccc(-c3ccccc3)cc2)NC(=O)[C@H](C(C)C)NC(=O)[C@H](Cc2c[nH]c3ccccc23)NC(=O)[C@H](CC(=O)O)NC(=O)[C@H](Cc2ccc(O)cc2)NC(=O)[C@H](CC(N)=O)NC(=O)CSC[C@@H](C(=O)N[C@@H](C)C(N)=O)NC(=O)[C@H]([C@@H](C)O)NC(=O)[C@H](C(C)C)NC1=O [Compound 1014] ({CH2CO}-NYDWV[Bip]VA[dL][Dab]LVTCA-NH2; thioether N-14) |
| 23.8 | CC(C)C[C@@H]1NC(=O)[C@H](CCN)NC(=O)[C@@H](CC(C)C)NC(=O)[C@H](CCCN)NC(=O)[C@H](C(C)C)NC(=O)[C@H](Cc2ccc(-c3ccccc3)cc2)NC(=O)[C@H](C(C)C)NC(=O)[C@H](Cc2c[nH]c3ccccc23)NC(=O)[C@H](CC(=O)O)NC(=O)[C@H](Cc2ccc(O)cc2)NC(=O)[C@H](CC(N)=O)NC(=O)CSC[C@@H](C(=O)N[C@@H](C)C(N)=O)NC(=O)[C@H]([C@@H](C)O)NC(=O)[C@H](C(C)C)NC1=O [Compound 1015] ({CH2CO}-NYDWV[Bip]V[Orn][dL][Dab]LVTCA-NH2; thioether N-14) |
| 31.9 | CC(C)C[C@@H]1NC(=O)[C@H](CCN)NC(=O)[C@@H](CC(C)C)NC(=O)[C@H](CCCN)NC(=O)[C@H](CCC(=O)O)NC(=O)[C@H](Cc2ccc(-c3ccccc3)cc2)NC(=O)[C@H](C(C)C)NC(=O)[C@H](Cc2c[nH]c3ccccc23)NC(=O)[C@H](CC(=O)O)NC(=O)[C@H](Cc2ccc(O)cc2)NC(=O)[C@H](CC(N)=O)NC(=O)CSC[C@@H](C(=O)N[C@@H](C)C(N)=O)NC(=O)[C@H]([C@@H](C)O)NC(=O)[C@H](C(C)C)NC1=O [Compound 1016] ({CH2CO}-NYDWV[Bip]E[Orn][dL][Dab]LVTCA-NH2; thioether N-14) |
| 20.3 | CC(C)C[C@@H]1NC(=O)[C@H](CCN)NC(=O)[C@@H](CC(C)C)NC(=O)[C@H](CCCN)NC(=O)[C@H](CCCNC(N)=O)NC(=O)[C@H](Cc2ccc(-c3ccccc3)cc2)NC(=O)[C@H](C(C)C)NC(=O)[C@H](Cc2c[nH]c3ccccc23)NC(=O)[C@H](CC(=O)O)NC(=O)[C@H](Cc2ccc(O)cc2)NC(=O)[C@H](CC(N)=O)NC(=O)CSC[C@@H](C(=O)N[C@@H](C)C(N)=O)NC(=O)[C@H]([C@@H](C)O)NC(=O)[C@H](C(C)C)NC1=O [Compound 1017] ({CH2CO}-NYDWV[Bip][Cit][Orn][dL][Dab]LVTCA-NH2; thioether N-14) |
| 20.7 | CC(C)C[C@@H]1NC(=O)[C@H](CCN)NC(=O)[C@@H](CC(C)C)NC(=O)[C@H](CCN)NC(=O)[C@H](CCCNC(N)=O)NC(=O)[C@H](Cc2ccc(-c3ccccc3)cc2)NC(=O)[C@H](C(C)C)NC(=O)[C@H](Cc2c[nH]c3ccccc23)NC(=O)[C@H](CC(=O)O)NC(=O)[C@H](Cc2ccc(O)cc2)NC(=O)[C@H](CC(N)=O)NC(=O)CSC[C@@H](C(=O)N[C@@H](C)C(N)=O)NC(=O)[C@H]([C@@H](C)O)NC(=O)[C@H](C(C)C)NC1=O [Compound 1018] ({CH2CO}-NYDWV[Bip][Cit][Dab][dL][Dab]LVTCA-NH2; thioether N-14) |
| 20.6 | CC(C)C[C@@H]1NC(=O)[C@H](CCN)NC(=O)[C@@H](CC(C)C)NC(=O)[C@H](CCCCN)NC(=O)[C@H](CCCNC(N)=O)NC(=O)[C@H](Cc2ccc(-c3ccccc3)cc2)NC(=O)[C@H](C(C)C)NC(=O)[C@H](Cc2c[nH]c3ccccc23)NC(=O)[C@H](CC(=O)O)NC(=O)[C@H](Cc2ccc(O)cc2)NC(=O)[C@H](CC(N)=O)NC(=O)CSC[C@@H](C(=O)N[C@@H](C)C(N)=O)NC(=O)[C@H]([C@@H](C)O)NC(=O)[C@H](C(C)C)NC1=O [Compound 1019] ({CH2CO}-NYDWV[Bip][Cit]K[dL][Dab]LVTCA-NH2; thioether N-14) |
| 26.8 | CC(C)C[C@@H]1NC(=O)[C@H](CCN)NC(=O)[C@@H](CC(C)C)NC(=O)[C@@H](CC(=O)O)NC(=O)[C@H](C(C)C)NC(=O)[C@H](Cc2ccc(-c3ccccc3)cc2)NC(=O)[C@H](C(C)C)NC(=O)[C@H](Cc2c[nH]c3ccccc23)NC(=O)[C@H](CC(=O)O)NC(=O)[C@H](Cc2ccc(O)cc2)NC(=O)[C@H](CC(N)=O)NC(=O)CSC[C@@H](C(=O)N[C@@H](C)C(N)=O)NC(=O)[C@H]([C@@H](C)O)NC(=O)[C@H](C(C)C)NC1=O [Compound 1021] ({CH2CO}-NYDWV[Bip]V[dD][dL][Dab]LVTCA-NH2; thioether N-14) |
| 17.7 | CC(C)C[C@@H]1NC(=O)[C@H](CCN)NC(=O)[C@@H](CC(C)C)NC(=O)[C@@H](CN)NC(=O)[C@H](C(C)C)NC(=O)[C@H](Cc2ccc(-c3ccccc3)cc2)NC(=O)[C@H](C(C)C)NC(=O)[C@H](Cc2c[nH]c3ccccc23)NC(=O)[C@H](CC(=O)O)NC(=O)[C@H](Cc2ccc(O)cc2)NC(=O)[C@H](CC(N)=O)NC(=O)CSC[C@@H](C(=O)N[C@@H](C)C(N)=O)NC(=O)[C@H]([C@@H](C)O)NC(=O)[C@H](C(C)C)NC1=O [Compound 1022] ({CH2CO}-NYDWV[Bip]V[dDap][dL][Dab]LVTCA-NH2; thioether N-14) |
| 4.6 | CC(C)C[C@@H]1NC(=O)[C@H](CCN)NC(=O)[C@@H](CC(C)C)NC(=O)[C@@H](CCN)NC(=O)[C@H](C(C)C)NC(=O)[C@H](Cc2ccc(-c3ccccc3)cc2)NC(=O)[C@H](C(C)C)NC(=O)[C@H](Cc2c[nH]c3ccccc23)NC(=O)[C@H](CC(=O)O)NC(=O)[C@H](Cc2ccc(O)cc2)NC(=O)[C@H](CC(N)=O)NC(=O)CSC[C@@H](C(=O)N[C@@H](C)C(N)=O)NC(=O)[C@H]([C@@H](C)O)NC(=O)[C@H](C(C)C)NC1=O [Compound 1023] ({CH2CO}-NYDWV[Bip]V[dDab][dL][Dab]LVTCA-NH2; thioether N-14) |
| 37.3 | CC(C)C[C@@H]1NC(=O)[C@H](CCN)NC(=O)[C@@H](CC(C)C)NC(=O)[C@H](CN)NC(=O)[C@H](CCCNC(N)=O)NC(=O)[C@H](Cc2ccc(-c3ccccc3)cc2)NC(=O)[C@H](C(C)C)NC(=O)[C@H](Cc2c[nH]c3ccccc23)NC(=O)[C@H](CC(=O)O)NC(=O)[C@H](Cc2ccc(O)cc2)NC(=O)[C@H](CC(N)=O)NC(=O)CSC[C@@H](C(=O)N[C@@H](C)C(N)=O)NC(=O)[C@H]([C@@H](C)O)NC(=O)[C@H](C(C)C)NC1=O [Compound 1024] ({CH2CO}-NYDWV[Bip][Cit][Dap][dL][Dab]LVTCA-NH2; thioether N-14) |
| 11 | CC(C)C[C@@H]1NC(=O)[C@H](CCN)NC(=O)[C@@H](CC(C)C)NC(=O)[C@H](CCCCN)NC(=O)[C@H](C(C)C)NC(=O)[C@H](Cc2ccc(-c3ccccc3)cc2)NC(=O)[C@H](C(C)C)NC(=O)[C@H](Cc2c[nH]c3ccccc23)NC(=O)[C@H](CC(=O)O)NC(=O)[C@H](Cc2ccc(O)cc2)NC(=O)[C@H](CC(N)=O)NC(=O)CSC[C@@H](C(=O)N[C@@H](C)C(N)=O)NC(=O)[C@H]([C@@H](C)O)NC(=O)[C@H](C(C)C)NC1=O [Compound 1025] ({CH2CO}-NYDWV[Bip]VK[dL][Dab]LVTCA-NH2; thioether N-14) |
| 10.8 | CC(C)C[C@@H]1NC(=O)[C@H](CCN)NC(=O)[C@@H](CC(C)C)NC(=O)[C@@H](C)NC(=O)[C@H](C(C)C)NC(=O)[C@H](Cc2ccc(-c3ccccc3)cc2)NC(=O)[C@H](C(C)C)NC(=O)[C@H](Cc2c[nH]c3ccccc23)NC(=O)[C@H](CC(=O)O)NC(=O)[C@H](Cc2ccc(O)cc2)NC(=O)[C@H](CC(N)=O)NC(=O)CSC[C@@H](C(=O)N[C@@H](C)C(N)=O)NC(=O)[C@H]([C@@H](C)O)NC(=O)[C@H](C(C)C)NC1=O [Compound 1026] ({CH2CO}-NYDWV[Bip]V[dA][dL][Dab]LVTCA-NH2; thioether N-14) |
| 19.5 | CC(C)C[C@@H]1NC(=O)[C@H](CCN)NC(=O)[C@@H](CC(C)C)NC(=O)[C@@H](CCCN)NC(=O)[C@H](C(C)C)NC(=O)[C@H](Cc2ccc(-c3ccccc3)cc2)NC(=O)[C@H](C(C)C)NC(=O)[C@H](Cc2c[nH]c3ccccc23)NC(=O)[C@H](CC(=O)O)NC(=O)[C@H](Cc2ccc(O)cc2)NC(=O)[C@H](CC(N)=O)NC(=O)CSC[C@@H](C(=O)N[C@@H](C)C(N)=O)NC(=O)[C@H]([C@@H](C)O)NC(=O)[C@H](C(C)C)NC1=O [Compound 1027] ({CH2CO}-NYDWV[Bip]V[dOrn][dL][Dab]LVTCA-NH2; thioether N-14) |
| 14.3 | CC(C)C[C@@H]1NC(=O)[C@H](CCN)NC(=O)[C@@H](CC(C)C)NC(=O)[C@H](CN)NC(=O)[C@H](C(C)C)NC(=O)[C@H](Cc2ccc(-c3ccccc3)cc2)NC(=O)[C@H](C(C)C)NC(=O)[C@H](Cc2c[nH]c3ccccc23)NC(=O)[C@H](CC(=O)O)NC(=O)[C@H](Cc2ccc(O)cc2)NC(=O)[C@H](CC(N)=O)NC(=O)CSC[C@@H](C(=O)N[C@@H](C)C(N)=O)NC(=O)[C@H]([C@@H](C)O)NC(=O)[C@H](C(C)C)NC1=O [Compound 1028] ({CH2CO}-NYDWV[Bip]V[Dap][dL][Dab]LVTCA-NH2; thioether N-14) |
| 5.4 | CC(C)C[C@@H]1NC(=O)[C@H](CCN)NC(=O)[C@@H](CC(C)C)NC(=O)[C@H](CCN)NC(=O)[C@H](C(C)C)NC(=O)[C@H](Cc2ccc(-c3ccccc3)cc2)NC(=O)[C@H](C(C)C)NC(=O)[C@H](Cc2c[nH]c3ccccc23)NC(=O)[C@H](CC(=O)O)NC(=O)[C@H](Cc2ccc(O)cc2)NC(=O)[C@H](CC(N)=O)NC(=O)CSC[C@@H](C(=O)N[C@@H](C)C(N)=O)NC(=O)[C@H]([C@@H](C)O)NC(=O)[C@H](C(C)C)NC1=O [Compound 1029] ({CH2CO}-NYDWV[Bip]V[Dab][dL][Dab]LVTCA-NH2; thioether N-14) |
